Assay results taken from US8980226B2, “Aerosolized fosfomycin/aminoglycoside combination for the treatment of bacterial respiratory infections” (Gilead Sciences, Inc., priority 2004, dated 2015).

What follows are compounds tested on P. aeruginosa ATCC 27853 (assay: MBC/MIC, broth microdilution). Details: aminoglycoside alone.
Format: cell-based
Protocol: “Minimal bactericidal concentration (MBC)” means the lowest concentration of antibiotic that results in ≧3 Log10 of bacterial killing.
The MICs of amikacin, arbekacin, dibekacin, gentamicin, kanamycin, netilimicin, neomycin, streptomycin, and tobramycin alone were determined for P. aeruginosa ATCC 27853 by the broth-microdilution method according to NCCLS standards (NCCLS, 2003). E. coli ATCC 25922 and S. aureus ATCC 29213 were used as quality control stains. Bacterial strains were streaked onto blood agar plates, and incubated at 35° C. for 18 hours. Two to three bacterial colonies from the overnight cultures were inoculated into 3 mL of sterile normal saline, vortexed briefly, and adjusted to a 0.5 McFarland standard (NCCLS, 2003). The bacterial suspension was diluted 1:100 in cation-adjusted Mueller-Hinton broth (hereafter referred to as CAMHB). Fifty microliters of bacterial inoculum (approximately 2×10^5 CFU/mL) was pipeted into individual wells of 96-well plates containing 50 μl of CAMHB (Remel, Lenexa, Kanas) supplemented with 2-fold dilutions of antibiotics ranging in concentration from 0.125 μg/mL to 128 μg/mL. The MIC was defined as the lowest concentration of antibiotic (s) that prevented visible growth after incubation at 35° C. for 18-24 hours.
The MBCs of fosfomycin, amikacin, arbekacin, dibikacin, gentamicin, kanamycin B, netilimicin, neomycin, streptomycin, or tobramycin alone for P. aeruginosa ATCC 27853, E. coli ATCC 25922, and S. aureus ATCC 29213 were determined by the broth microdilution method according to NCCLS standards (NCCLS, 1999). Bacterial strains were streaked onto blood agar plates and incubated at 35° C. for 18-24 hours. Two to three bacterial colonies from the overnight cultures were inoculated into 3 mL of sterile normal saline, vortexed briefly, and adjusted to a 0.5 McFarland standard (NCCLS, 2003). Fifty microliters of bacterial inoculum (approximately 2×10^5 CFU/mL) was pipeted into individual wells of 96-well plates containing 50 μl of CAMHB (Remel, Lenexa, Kanas) supplemented with 2-fold dilutions of antibiotics ranging in concentration from 0.125 μg/mL to 128 μg/mL. Plates were incubated at 35° C. for 18-24 hours and MIC determined as described in Example 5, Method C. The contents of wells showing no growth (MIC and above) were mixed with a pipetor and duplicate 10 μl samples spread onto blood agar plates. Culture plates were incubated at 35° C. for 18-24 hours and the number of bacterial colonies on each plate enumerated manually. Rejection values were determined by NCCLS methods which considers the final inoculum size, single or double sampling, pipetting error, and the Poisson distribution of sample responses (NCCLS, 1999). […] The MBC was defined as the ≧3 Log10 decrease in CFU/mL of the original inoculum as described by NCCLS standards (NCCLS, 1999). The MBC/MIC ratios were calculated by dividing the MBC by the MIC.

Compound	MBC/MIC Aminoglycoside
gentamicin	2
NCC[C@H](O)C(=O)N[C@@H]1C[C@H](N)[C@@H](O[C@H]2O[C@H](CN)CC[C@H]2N)[C@H](O)[C@H]1O[C@H]1O[C@H](CO)[C@@H](O)[C@H](N)[C@H]1O [Arbekacin, arbekacin]	1
[H]/N=C(/N)N[C@H]1[C@H](O)[C@@H](O)[C@H](O[C@@H]2O[C@@H](C)[C@](O)(C=O)[C@H]2O[C@@H]2O[C@@H](CO)[C@H](O)[C@@H](O)[C@@H]2NC)[C@@H](N/C(N)=N\[H])[C@@H]1O [Streptomycin, streptomycin]	4
neomycin	2
NC[C@@H]1CC[C@@H](N)[C@@H](O[C@H]2[C@H](O)[C@@H](O[C@H]3O[C@H](CO)[C@@H](O)[C@H](N)[C@H]3O)[C@H](N)C[C@@H]2N)O1 [Dibekacin, dibekacin]	1
CCN[C@@H]1C[C@H](N)[C@@H](O[C@H]2OC(CN)=CC[C@H]2N)[C@H](O)[C@H]1O[C@H]1OC[C@](C)(O)[C@H](NC)[C@H]1O [Netilimicin, netilmicin]	1
NCC[C@H](O)C(=O)N[C@@H]1C[C@H](N)[C@@H](O[C@H]2O[C@H](CN)[C@@H](O)[C@H](O)[C@H]2O)[C@H](O)[C@H]1O[C@H]1O[C@H](CO)[C@@H](O)[C@H](N)[C@H]1O [Amikacin, amikacin]	2
